Consider 57 molecules from BindingDB's records for doi:10.1016/j.bmc.2017.01.005 (University of New Mexico, 2017).

This experiment addresses T1, Nuclear factor erythroid 2-related factor 2 (Homo sapiens, UniProt Q16236).
T1 sequence (Q16236 whole entry): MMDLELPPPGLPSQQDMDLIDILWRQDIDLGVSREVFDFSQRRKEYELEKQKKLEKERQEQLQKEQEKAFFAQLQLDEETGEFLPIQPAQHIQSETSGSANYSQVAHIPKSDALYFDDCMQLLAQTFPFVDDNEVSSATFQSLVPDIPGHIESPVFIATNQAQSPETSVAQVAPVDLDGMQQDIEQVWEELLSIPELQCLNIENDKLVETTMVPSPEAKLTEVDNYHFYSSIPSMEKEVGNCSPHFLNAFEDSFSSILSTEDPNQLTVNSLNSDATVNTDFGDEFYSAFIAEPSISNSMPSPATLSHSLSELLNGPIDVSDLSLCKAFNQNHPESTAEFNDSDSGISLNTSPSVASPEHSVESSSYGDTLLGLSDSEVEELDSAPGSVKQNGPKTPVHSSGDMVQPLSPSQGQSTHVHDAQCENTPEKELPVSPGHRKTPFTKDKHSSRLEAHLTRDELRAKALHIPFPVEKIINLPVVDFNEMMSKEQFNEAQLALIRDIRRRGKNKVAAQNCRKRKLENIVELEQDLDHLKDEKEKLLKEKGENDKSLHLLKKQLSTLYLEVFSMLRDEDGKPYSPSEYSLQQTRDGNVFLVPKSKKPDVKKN
Nature of the experiment: Activation of Nrf2 (unknown origin) expressed in human HepG2 cells after 5 hrs by ARE-driven luciferase reporter gene assay. (In general: In a reporter assay the amount or activity of a reporter protein is the signal.)
Broadly, the EC50 is the concentration needed to bring the measured effect to its halfway point. In turn, `COc1ccc(/C=C/c2cccc(F)c2)cc1` [US8980954, 6n] showed an EC50 of 8.9 µM. This lies in the single-digit micromolar range. The molecule `Cc1ccc(/C=C/c2ccc(F)cc2)cc1` registered an EC50 of 1.3 µM.

As for `COc1ccc(/C=C/c2cc(F)ccc2F)cc1`, the EC50 is 3.2 µM. This EC50 lies about 2.5-fold higher than the previous one.

Take `Cc1ccc(/C=C/c2cccc(F)c2)cc1`: the EC50 stood at 0.8 µM.

`COc1ccc(/C=C/c2cccc([N+](=O)[O-])c2)cc1` yielded an EC50 of 3.3 µM. In turn, `COc1cccc(/C=C/c2ccccc2)c1OC` showed an EC50 of 4.7 µM. The EC50 values of the last two molecules are within 1.5-fold of each other. In turn, `Fc1cccc(/C=C/c2ccccc2)c1` returned a concentration giving a half-maximal response (EC50) of 3.1 µM. `Fc1cccc(/C=C/c2cc(F)ccc2F)c1` registered an EC50 of 0.3 µM. As to `Fc1cccc(/C=C/c2ccccc2F)c1`, the EC50 was > 15 µM. With `COc1cccc(/C=C/c2ccc(F)cc2)c1` the figure was 6 µM; with `Cc1ccc(/C=C/c2cccc([N+](=O)[O-])c2)cc1`, 3.7 µM; with `COc1ccc(OC)c(/C=C/c2ccc(OC)cc2OC)c1`, 0.8 µM. As to `COc1ccc(/C=C/c2ccc(F)cc2)cc1`, the concentration for a half-maximal effect (EC50) amounted to 4.2 µM.

In the case of `COc1cccc(/C=C/c2cc(OC)ccc2OC)c1`, the EC50 was > 15 µM. `COc1ccc(/C=C/c2ccccc2F)cc1` [US8980954, 6p] displayed an EC50 of 5.4 µM. Take `COc1ccc(/C=C/c2cccc(F)c2)cc1OC` [4-(3-fluorostyryl)-1,2-dimethoxybenzene]: the EC50 was 9.5 µM. With `COc1ccc(OC)c(/C=C/c2ccc(F)cc2)c1` the figure was 5.1 µM.

Molecule `COc1cccc(/C=C/c2ccc(C(F)(F)F)cc2)c1OC` showed an EC50 of 2.2 µM. With `COc1ccc(/C=C/c2ccc(F)cc2)cc1OC`, a half-maximal response (EC50) required 2.6 µM. Take `Fc1ccccc1/C=C/c1ccccc1`: it took 0.7 µM to reach a half-maximal effect (EC50). Regarding `Fc1ccc(/C=C/c2ccccc2F)c(F)c1`, the concentration for a half-maximal effect (EC50) was 9.6 µM. `Cc1ccc(/C=C/c2ccccc2F)cc1` returned an EC50 of 1.4 µM. This EC50 is about 6.9-fold lower than that of the molecule before. On to `COc1cccc(/C=C/c2ccc(C(C)C)cc2)c1OC`, for which the EC50 worked out at 2.7 µM. For the molecule `Cc1ccc(/C=C/c2ccc(F)cc2F)cc1`, a half-maximal response (EC50) required 2 µM.

Take `COc1ccc(/C=C/c2ccc(F)c(F)c2)cc1`: the EC50 is > 15 µM. Then `Cc1ccc(/C=C/c2ccc(F)c(F)c2)cc1`, with 2.6 µM; and `Fc1ccc(F)c(/C=C/c2ccccc2F)c1`, with 5.9 µM. With `COc1cccc(/C=C/c2ccccc2OC)c1` the figure was 4.4 µM; with `Fc1ccc(/C=C/c2ccccc2F)cc1F`, > 15 µM.

`COc1ccc(/C=C/c2ccccc2Cl)cc1` [US8980954, 6j] returned an EC50 of 3.1 µM. This counts as single-digit micromolar. As to `Fc1ccccc1/C=C/c1ccc(Cl)cc1`, the EC50 is 1.6 µM. In the case of `Fc1ccc(/C=C/c2ccc(F)c(F)c2)cc1`, the EC50 is > 15 µM. Molecule `Fc1ccccc1/C=C/c1ccccc1F` gave an EC50 of 4.3 µM. This counts as single-digit micromolar. As to `Oc1ccc(/C=C/c2ccccc2F)cc1`, the response was half-maximal at 11.4 µM (EC50). This EC50 lies about 2.7-fold higher than the previous one. As to `Fc1ccc(/C=C/c2ccccc2)cc1`, the EC50 is 12.4 µM. With `COc1cccc(/C=C/c2ccc(C)cc2)c1OC` the figure was 1.1 µM; with `Fc1cccc(/C=C/c2ccc(F)c(F)c2)c1`, 5 µM; with `COc1cccc(/C=C/c2ccc(F)cc2)c1OC`, 2.9 µM. For `COc1cccc(/C=C/c2cccc(F)c2)c1`, the midpoint of the response, the EC50, lay at 2.3 µM. Regarding `Fc1ccc(/C=C/c2ccc(F)cc2F)cc1`, a half-maximal effect (EC50) was put at 0.9 µM. As for `Fc1ccc(/C=C/c2ccccc2F)cc1`, the EC50 was 3.6 µM.

For `O=[N+]([O-])c1cccc(/C=C/c2ccccc2)c1`, a half-maximal response (EC50) required 3 µM.

`Fc1cccc(F)c1/C=C/c1ccccc1` yielded an EC50 of 6.9 µM.

As for `Fc1cccc(/C=C/c2cccc(F)c2)c1`, the EC50 stood at 1 µM. The molecule `Fc1ccc(/C=C/c2cccc(F)c2)cc1` had an EC50 of 0.65 µM. Against the preceding molecule, the EC50 is about 1.5-fold lower. The molecule `Fc1ccccc1/C=C/c1c(F)cccc1F` had an EC50 of 1.4 µM. This EC50 is about 2.2-fold higher than that of the molecule before. In turn, `COc1ccccc1/C=C/c1ccccc1` returned an EC50 of 4.4 µM. On to `COc1cccc(/C=C/c2cccc(F)c2)c1OC`, for which the EC50 is 1.9 µM. Take `COc1cccc(/C=C/c2ccccc2F)c1`: the concentration for a half-maximal effect (EC50) came out at 3.8 µM.

In the case of `COc1ccc(/C=C/c2cccc(O)c2)cc1`, the EC50 was > 15 µM. In turn, `COc1ccccc1/C=C/c1ccccc1F` returned an EC50 of 3.1 µM. On to `Fc1ccc(/C=C/c2cc(F)ccc2F)cc1`, for which the EC50 is 2.9 µM. Molecule `Oc1ccc(/C=C/c2cc(O)cc(O)c2)cc1` [5-[(E)-2-(4-hydroxyphenyl)ethenyl]benzene-1,3-diol] had an EC50 of 5.4 µM. The molecule `COc1ccc(/C=C/c2ccc(O)c(OC)c2)cc1` had an EC50 of 3.7 µM. With `Fc1cccc(/C=C/c2ccc(F)cc2F)c1` the figure was 0.45 µM; with `COc1ccc(/C=C/c2ccc(OC)cc2OC)cc1` [(E)2'',4,4''-Trimethoxystilbene], 4.6 µM. With `Cc1ccc(/C=C/c2cccc(C(F)(F)F)c2)cc1` the figure was 1.5 µM.
